The values below come from patent US20150231147A1, “METHODS FOR ACUTE AND LONG-TERM TREATMENT OF DRUG ADDICTION” (DemeRx, Inc., priority 2014, published 2015).

This series is described as follows: Plasma noribogaine glucuronide pharmacokinetics after noribogaine dosing, healthy volunteers. It is filed as in vivo, human. As to conditions: for AUC0-216 / AUC0-∞ / Cmax / Tmax / t1/2: healthy male volunteers, mean (n = 6).
The mark [1] stands for this setting: plasma glucuronide after single oral 30 mg noribogaine.
The mark [2] stands for this setting: plasma glucuronide after single oral 60 mg noribogaine.

The structures appear in SMILES notation.

As for `CC[C@H]1C[C@@H]2C[C@H]3c4[nH]c5ccc(OC6OC(C(=O)O)C(O)C(O)C6O)cc5c4CCN(C2)[C@@H]13` (some centres unmarked) [Noribogaine glucuronide], under “30 mg and 60 mg noribogaine dose groups”, the “Mean half-life of plasma noribogaine glucuronide” value is 21 to 23 h. Moreover, for the setting “both dose groups (30 mg and 60 mg)”, the “proportion of noribogaine glucuronide Cmax and AUC relative to noribogaine” value was 3-4%. Under setting [1], the AUC0-216 was 25.7 ng·h/mL, the “AUC0-∞” value came to 25.8 ng·h/mL, the Cmax came out at 1.8 ng/mL and the Tmax was 3.0 h. Under setting [1], this compound registered a t1/2 of 20.6 h. For the same compound, under setting [2], the AUC0-216 was 65.0 ng·h/mL, the “AUC0-∞” value stood at 67.1 ng·h/mL, the Cmax stood at 4.1 ng/mL and the Tmax was 3.8 h. In addition, under setting [2], the t1/2 came out at 23.1 h. In addition, where the note is “plasma glucuronide, 30 mg and 60 mg noribogaine dose groups”, the “time of peak concentrations after noribogaine dosing” value fell in the range of 3 to 4 h. The “time by which noribogaine glucuronide was detected in all subjects” value (plasma, 30 mg and 60 mg noribogaine dose groups) was at most 0.75 h.
